Measured values as given in patent publication US11878063B2, “Engineered ligands and uses thereof” (Children's Medical Center Corporation, priority 2019, dated 2024).
Square brackets hold non-standard residues; d marks the D form. Ends that are not written are not given here. Peptide text beside a SMILES is read from it. hArg = N=C(N)NCCCC[C@H](N)C(=O)O; Aib = CC(C)(N)C(=O)O

Legend:
Mice (CD1 female) = assay: Calcemic response: blood ionized calcium in mice after subcutaneous injection; format: in vivo, mouse; settings: 35 nmol/kg subcutaneous, n=4
Description: Animal experiments and measurement of in vivo response. Mice (CD1 female, age 11 weeks) were treated in accordance with the ethical guidelines adopted by Massachusetts General Hospital. […] Peptides and conjugates were administered at doses that allowed for differentiation between compounds with differing levels of in vivo activity^27. Statistical analyses were performed assuming Gaussian distribution of data. Mice (n=4 per compound) were injected subcutaneously with vehicle (10 mM citric acid/150 mM NaCl/0.05% Tween-80, pH 5.0) or vehicle containing PTH or conjugate at a dose of 35 nmol/kg body weight. […] Blood was withdrawn just before injection (t=0) or at times thereafter. Tail vein blood was collected and immediately analyzed. Blood Ca^2+ concentration was measured with a Siemens RapidLab 348 Ca2+/pH analyzer.

PTHR1YFPΔECD = assay: cAMP induction in HEK293 cells stably expressing PTHR1YFPΔECD (YFP replaces extracellular domain); format: cell-based, human
Description: (§1) Measurement of cAMP response. These assays were performed as previously described^27. Briefly, HEK-293-derived cell lines that stably express the Glosensor cAMP reporter (Promega Corp.)^30 and PTHR1, a PTHR1 variant, or PTHR2 were seeded into white sided 96 well plates (50,000 cells/well) and grown to confluency. Confluent monolayers of cells were pre-incubated with CO2 independent medium containing D-luciferin (0.5 mM) at 37° C. until a stable baseline level of luminescence was established (20 min). Varying concentrations of ligands were then added, and the time course of luminescence response was recorded using BioTek plate reader.
(§2) Data calculations. Data were processed using Microsoft Excel and GraphPad Prism 6. Data from cAMP dose-response assays were analyzed using a sigmoidal dose-response model with variable slope. Data sets were statistically compared by using Student's t test (two-tailed) assuming unequal variances for the two sets.
(§3) The portion of PTHR1 encoded by exon 2 is not resolved in structural studies (FIG. 12—Panel d)^13, 14, 17, is not important for ligand binding^18, and in past work has been targeted as a site for receptor modification^18, 19. A construct was generated that encodes a PTHR1 variant in which a 14-residue fragment from exon 2 was replaced with a 14-mer epitope tag from the intracellular protein UBC6e (PTHR16E, FIG. 12—Panel d)^20. A receptor construct in which a pH-sensitive green fluorescent protein variant (GFP) was inserted into the portion of the receptor encoded by exon 2 (PTHR1GFP in FIGS. 17A to 17C)^19. Another version of PTHR1 in which yellow fluorescent protein (YFP) replaces the entire extracellular domain (PTHR1YFPΔECD, FIG. 12—Panel e)^21, was also used.

PTHR1GFP = assay: cAMP induction in HEK293 cells stably expressing PTHR1GFP; format: cell-based, human
Description: The GFP-PTHR1 fusion was stably expressed in cells that respond to receptor engagement by activation of a cAMP-sensitive version of luciferase. Exposure of these transfectants to PTH(1-11) yielded the expected dose-response curve with half maximal stimulation at ˜200 nM.
as §1, with “reader. The maximal luminescence response (observed 12-16 min after ligand addition) was used to construct dose-response data sets (Table 4, FIGS. 22A to 22E).” for “reader.”
as §2
as §3, with “While there is no structural information for any VHH bound to PTHR1, a mode of interaction was envisioned between the receptor and VHH-PTH conjugates like that depicted in FIG. 12—Panel c. The” for “The”

PTHR16E = target: T1, PTHR16E (Homo sapiens, UniProt Q03431, A83I/D81R/G76A/K80A/K82Q/P78E/R79L/S71Q/S73D/S75E/T74Q); assay: cAMP induction in HEK293 cells stably expressing PTHR16E (6E/Ubc6e epitope tag in exon 2 segment); format: cell-based
T1 construct: expressed in transfected cells
T1 sequence (Q03431 27-593 S71Q/S73D/T74Q/S75E/G76A/P78E/R79L/K80A/D81R/K82Q/A83I): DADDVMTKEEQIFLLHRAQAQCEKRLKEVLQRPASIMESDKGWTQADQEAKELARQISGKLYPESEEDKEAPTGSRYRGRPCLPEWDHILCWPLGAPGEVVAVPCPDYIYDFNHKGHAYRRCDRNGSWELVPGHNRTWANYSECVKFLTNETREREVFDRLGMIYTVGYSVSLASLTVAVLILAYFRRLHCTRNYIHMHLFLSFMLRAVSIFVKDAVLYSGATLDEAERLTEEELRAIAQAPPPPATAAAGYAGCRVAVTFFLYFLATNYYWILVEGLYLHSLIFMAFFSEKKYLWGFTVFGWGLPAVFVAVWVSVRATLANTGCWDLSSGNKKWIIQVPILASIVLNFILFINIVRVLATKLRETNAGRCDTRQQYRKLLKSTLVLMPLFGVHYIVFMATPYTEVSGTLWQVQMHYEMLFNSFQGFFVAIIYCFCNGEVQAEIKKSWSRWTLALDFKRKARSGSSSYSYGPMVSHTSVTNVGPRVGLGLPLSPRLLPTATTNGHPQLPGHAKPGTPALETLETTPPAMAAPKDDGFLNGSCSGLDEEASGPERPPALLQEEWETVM
Description: as §1, §2, §3

human PTHR1 = target: T2, human PTHR1 (Homo sapiens, UniProt Q03431); assay: cAMP induction (cAMP-responsive luciferase) in HEK293 cells stably expressing human PTHR1; format: cell-based
T2 construct: expressed in transfected cells
T2 sequence (Q03431 27-593): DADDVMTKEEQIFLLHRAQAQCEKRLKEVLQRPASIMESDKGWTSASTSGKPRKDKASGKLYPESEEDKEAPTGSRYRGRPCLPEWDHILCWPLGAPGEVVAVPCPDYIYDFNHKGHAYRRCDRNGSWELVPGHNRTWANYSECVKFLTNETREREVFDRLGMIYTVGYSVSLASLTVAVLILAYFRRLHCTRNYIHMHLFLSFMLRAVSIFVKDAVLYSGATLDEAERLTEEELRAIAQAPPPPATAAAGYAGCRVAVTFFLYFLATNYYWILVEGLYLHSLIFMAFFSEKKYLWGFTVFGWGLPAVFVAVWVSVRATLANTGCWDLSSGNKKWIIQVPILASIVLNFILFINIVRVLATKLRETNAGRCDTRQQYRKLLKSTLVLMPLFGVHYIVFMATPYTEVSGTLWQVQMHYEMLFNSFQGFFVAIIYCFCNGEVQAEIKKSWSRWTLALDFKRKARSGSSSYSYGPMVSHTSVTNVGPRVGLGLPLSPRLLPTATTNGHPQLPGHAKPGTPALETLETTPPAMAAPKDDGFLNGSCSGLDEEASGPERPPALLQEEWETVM
Description: (§4) Measurement of cAMP response. These assays were performed as previously described^27. […] Confluent monolayers of cells were pre-incubated with CO2 independent medium containing D-luciferin (0.5 mM) at 37° C. until a stable baseline level of luminescence was established (20 min). Varying concentrations of ligands were then added, and the time course of luminescence response was recorded using BioTek plate reader.
as §2

PTHR2 [1] = target: T3, PTHR2 (Homo sapiens, UniProt P49190); assay: cAMP induction in HEK293 cells stably expressing human PTHR2; format: cell-based
T3 construct: expressed in transfected cells
Description: as §4, §2

PTHR2 [2] = target: T3, PTHR2; assay: Flow cytometry staining by VHH-Alexafluor647 of HEK293 cells expressing PTHR2; format: binding; settings: 100 nM VHH
Description: Flow cytometry. Suspensions of cells in PBS were stained for 1 hour on ice in the presence of indicated concentrations of VHH probes functionalized with Alexafluor647. Cells were pelleted by centrifugation and washed with PBS prior to analysis by flow cytometry (BD Accuri C6). Gating was performed on forward scatter/side scatter profiles to analyze intact cells. Data was analyzed using FlowJo version 7.6. The median fluorescent intensity (MFI) of stained cells was used to generate VHH binding dose response curves (FIG. 20).

[3] = mean ± SD, Inactive = response <5% of maximal
[4] = maximal cAMP response, normalized

T3 sequence (P49190 25-550): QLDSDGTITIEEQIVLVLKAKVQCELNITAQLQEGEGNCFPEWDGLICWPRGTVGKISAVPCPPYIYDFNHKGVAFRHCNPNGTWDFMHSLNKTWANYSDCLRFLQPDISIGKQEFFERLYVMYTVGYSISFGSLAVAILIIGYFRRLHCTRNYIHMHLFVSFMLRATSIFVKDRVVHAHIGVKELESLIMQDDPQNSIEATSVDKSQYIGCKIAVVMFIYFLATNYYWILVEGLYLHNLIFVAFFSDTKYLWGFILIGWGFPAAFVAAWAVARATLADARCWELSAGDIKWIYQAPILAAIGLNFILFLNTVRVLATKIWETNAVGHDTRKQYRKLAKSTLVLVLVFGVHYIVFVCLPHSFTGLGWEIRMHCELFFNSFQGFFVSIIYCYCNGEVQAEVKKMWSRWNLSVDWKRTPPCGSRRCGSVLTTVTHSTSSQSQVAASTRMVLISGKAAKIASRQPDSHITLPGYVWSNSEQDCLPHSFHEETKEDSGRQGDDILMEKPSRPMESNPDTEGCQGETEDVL

M-PTH(1-14): UVUEIQLMHQXAKW (SEQ ID NO: 90) where U is Aib and X is homoarginine ([Aib]V[Aib]EIQLMHQ[hArg]AKW; not fully specified (C-terminus))
blood ionized calcium response (Mice (CD1 female)): little if any activity

modified N-terminal PTH fragment with Aib3, amide; probably AV(Aib)EIQLMH (SEQ ID NO: 86) [PTH(1-9)]
activation of PTHR1 with ECD replaced by fluorescent protein (in words) (PTHR1YFPΔECD): inactive alone | EC50, cAMP induction, hPTHR1YFPΔECD (PTHR1YFPΔECD; [3]): Inactive at 10,000 nM | EC50, cAMP induction, hPTHR1GFP (PTHR1GFP; [3]): Inactive at 10,000 nM | EC50, cAMP induction, PTHR16E (PTHR16E; [3]): Inactive at 10,000 nM | EC50, cAMP induction, hPTHR1 (human PTHR1; mean ± SD, Inactive = response <5% of maximal response at that concentration): Inactive at 10,000 nM

TIP 39
activation of human PTHR2 (in words) (PTHR2 [1]): activated

CC[C@H](C)[C@H](NC(=O)[C@H](CCC(=O)O)NC(=O)C(C)(C)NC(=O)[C@@H](NC(=O)[C@H](C)N)C(C)C)C(=O)N[C@@H](CCC(N)=O)C(=O)N[C@@H](CC(C)C)C(=O)N[C@@H](CCSC)C(=O)N[C@@H](Cc1c[nH]cn1)C(=O)N[C@@H](CCC(N)=O)C(=O)N[C@@H](CCCNC(=N)N)C(=O)N[C@@H](C)C(=O)N[C@@H](CCCCN)C(=O)N[C@@H](Cc1c[nH]c2ccccc12)C(=O)N[C@@H](CS)C(N)=O [PTH(1-14)] (H-AV[Aib]EIQLMHQRAKWC-NH2)
Max (normalized ± SD), hPTHR1YFPΔECD (PTHR1YFPΔECD; [4]): 0.96 ± 0.04 | EC50 (PTHR1YFPΔECD; mean ± SD, Inactive = response <5% of maximal, read-out: EC50, cAMP induction, hPTHR1YFPΔECD): 1.1 ± 0.9 nM | Max (normalized ± SD), hPTHR1GFP (PTHR1GFP; [4]): 1.09 ± 0.03 | EC50 (PTHR1GFP; mean ± SD, Inactive = response <5% of maximal, read-out: EC50, cAMP induction, hPTHR1GFP): 2.3 ± 1.2 nM | Max (normalized ± SD), hPTHR16E (PTHR16E; [4]): 1.06 ± 0.12 | activation of human PTHR2 (in words) (PTHR2 [1]): activated | Max (normalized ± SD), hPTHR2 (PTHR2 [1]; [4]): 1.14 ± 0.28 | EC50 (PTHR2 [1]; mean ± SD, read-out: EC50, cAMP induction, hPTHR2): 924 ± 328 nM | activation of wild-type human PTHR1 (in words) (human PTHR1): activated | Max (normalized ± SD), hPTHR1 (human PTHR1; [4]): 1.01 ± 0.07 | EC50 (human PTHR1; mean ± SD, Inactive = response <5% of maximal response at that concentration, read-out: EC50, cAMP induction, hPTHR1): 4.3 ± 2 nM

B1: VHH6E: nanobody that recognizes a 14-mer peptide from UBC6e (…), SEQ ID NO: 71 (protein)
VHH: QVQLQESGGGLVQPGGSLRLSCAASGFVFENSAMAWYRQAPGKERELIAVIGTTFIKLAESVKGRFTISRDNAKSTVYLQMNNLKPEDTAVYYCSKSGAYWGQGTQVTVSSLPETGG
binding to PTHR2 (in words) (PTHR2 [2]): lack of binding

B2: VHH05-PTH(1-34): PTH(1-34)-Cys conjugated to nanobody VHH05 (conjugate)
VHH: QVQLQESGGGLVQPGGSLRLSCAASGFVFENSAMAWYRQAPGKERELIAVIGTTFIKLAESVKGRFTISRDNAKSTVYLQMNNLKPEDTAVYYCSKSGAYWGQGTQVTVSS
peptide: SVSEIQLMHNLGKHLNSMERVEWLRKKLQDVHNFC
activation of wild-type human PTHR1 (in words) (human PTHR1): activates
